Source: ChEMBL document CHEMBL3991601, “The target landscape of clinical kinase drugs” (Science, 2017)
Calls of active or inactive are those of the source.

Assays:
[1] = target: Serine/threonine-protein kinase N2 (Homo sapiens, UniProt Q16513)
[2] = target: Casein kinase I isoform epsilon (Homo sapiens, UniProt P49674)
[3] = target: Serine/threonine-protein kinase pim-1 (Homo sapiens, UniProt P11309)
Scaffold protein ILK = target: T1, Scaffold protein ILK (Homo sapiens, UniProt Q13418)
T1 sequence (Q13418 whole entry): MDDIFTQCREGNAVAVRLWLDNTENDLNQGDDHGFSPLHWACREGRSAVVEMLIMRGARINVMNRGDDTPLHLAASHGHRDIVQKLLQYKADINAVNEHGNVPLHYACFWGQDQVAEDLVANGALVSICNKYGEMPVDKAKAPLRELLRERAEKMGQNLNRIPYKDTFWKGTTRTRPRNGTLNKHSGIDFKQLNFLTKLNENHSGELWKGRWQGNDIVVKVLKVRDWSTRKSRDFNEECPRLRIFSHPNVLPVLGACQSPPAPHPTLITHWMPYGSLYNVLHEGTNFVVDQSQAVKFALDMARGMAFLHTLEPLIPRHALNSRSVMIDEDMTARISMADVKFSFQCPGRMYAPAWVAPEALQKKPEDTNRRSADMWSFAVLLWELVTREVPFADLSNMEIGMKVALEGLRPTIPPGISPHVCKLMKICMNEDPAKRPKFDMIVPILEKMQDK

[4] = target: T2, Phosphatidylinositol 5-phosphate 4-kinase type-2 alpha (Homo sapiens, UniProt P48426)
T2 sequence (P48426 whole entry): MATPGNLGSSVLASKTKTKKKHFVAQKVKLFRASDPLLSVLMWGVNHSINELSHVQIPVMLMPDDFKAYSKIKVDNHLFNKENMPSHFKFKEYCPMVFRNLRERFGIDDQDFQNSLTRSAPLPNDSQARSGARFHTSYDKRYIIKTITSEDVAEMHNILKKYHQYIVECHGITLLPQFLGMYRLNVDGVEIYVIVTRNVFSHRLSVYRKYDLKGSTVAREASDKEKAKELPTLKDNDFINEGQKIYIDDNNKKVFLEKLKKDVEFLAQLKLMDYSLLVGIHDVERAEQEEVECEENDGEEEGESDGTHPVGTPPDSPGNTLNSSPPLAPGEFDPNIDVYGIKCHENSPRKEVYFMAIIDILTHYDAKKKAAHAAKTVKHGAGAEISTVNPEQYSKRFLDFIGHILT

[5] = target: Casein kinase II subunit alpha' (Homo sapiens, UniProt P19784)
Casein kinase II subunit alpha', sequence (P19784 whole entry): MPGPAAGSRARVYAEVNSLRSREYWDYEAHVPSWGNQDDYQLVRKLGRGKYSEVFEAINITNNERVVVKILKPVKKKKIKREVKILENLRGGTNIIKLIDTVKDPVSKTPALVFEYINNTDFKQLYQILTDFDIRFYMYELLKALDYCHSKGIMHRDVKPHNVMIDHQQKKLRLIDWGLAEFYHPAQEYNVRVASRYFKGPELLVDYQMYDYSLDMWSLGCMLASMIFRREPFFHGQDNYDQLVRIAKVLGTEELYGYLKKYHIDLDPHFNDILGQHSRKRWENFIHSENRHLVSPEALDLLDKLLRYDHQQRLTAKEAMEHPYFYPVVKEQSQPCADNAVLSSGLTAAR

TGF-beta receptor type-2 = TGF-beta receptor type-2 (Homo sapiens, UniProt P37173)
TGF-beta receptor type-2, sequence (P37173 whole entry): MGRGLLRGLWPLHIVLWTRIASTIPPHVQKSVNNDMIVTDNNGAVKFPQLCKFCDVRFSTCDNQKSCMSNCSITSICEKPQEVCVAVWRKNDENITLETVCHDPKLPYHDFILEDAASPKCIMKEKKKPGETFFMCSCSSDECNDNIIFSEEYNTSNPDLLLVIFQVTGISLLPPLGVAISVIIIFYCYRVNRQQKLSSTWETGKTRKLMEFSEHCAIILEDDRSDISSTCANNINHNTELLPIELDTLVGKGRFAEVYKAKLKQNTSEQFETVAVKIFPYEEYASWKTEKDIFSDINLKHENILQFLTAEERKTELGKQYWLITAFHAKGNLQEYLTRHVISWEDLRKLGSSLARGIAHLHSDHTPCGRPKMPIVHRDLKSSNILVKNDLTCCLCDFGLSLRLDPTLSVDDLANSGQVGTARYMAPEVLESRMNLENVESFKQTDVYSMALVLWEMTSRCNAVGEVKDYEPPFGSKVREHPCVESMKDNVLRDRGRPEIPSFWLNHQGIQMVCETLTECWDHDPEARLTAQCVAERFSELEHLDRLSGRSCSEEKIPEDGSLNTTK

Activin receptor type-2B = Activin receptor type-2B (Homo sapiens, UniProt Q13705)
Activin receptor type-2B, sequence (Q13705 whole entry): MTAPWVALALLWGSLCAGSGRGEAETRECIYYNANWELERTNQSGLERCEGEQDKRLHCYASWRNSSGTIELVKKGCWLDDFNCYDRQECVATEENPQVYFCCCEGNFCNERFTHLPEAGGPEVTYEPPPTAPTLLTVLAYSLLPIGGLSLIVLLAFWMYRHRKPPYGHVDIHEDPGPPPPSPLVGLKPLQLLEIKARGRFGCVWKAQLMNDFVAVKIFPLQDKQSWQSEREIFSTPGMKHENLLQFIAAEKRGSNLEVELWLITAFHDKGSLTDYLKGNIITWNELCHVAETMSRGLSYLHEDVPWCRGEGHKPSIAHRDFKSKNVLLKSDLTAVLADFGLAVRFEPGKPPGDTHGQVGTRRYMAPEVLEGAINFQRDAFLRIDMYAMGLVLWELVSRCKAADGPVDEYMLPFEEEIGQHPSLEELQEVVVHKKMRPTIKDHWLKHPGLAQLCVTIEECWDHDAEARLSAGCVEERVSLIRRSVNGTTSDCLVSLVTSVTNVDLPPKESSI

[6] = target: T3, Serine/threonine-protein kinase Nek9 (Homo sapiens, UniProt Q8TD19)
T3 sequence (Q8TD19 whole entry): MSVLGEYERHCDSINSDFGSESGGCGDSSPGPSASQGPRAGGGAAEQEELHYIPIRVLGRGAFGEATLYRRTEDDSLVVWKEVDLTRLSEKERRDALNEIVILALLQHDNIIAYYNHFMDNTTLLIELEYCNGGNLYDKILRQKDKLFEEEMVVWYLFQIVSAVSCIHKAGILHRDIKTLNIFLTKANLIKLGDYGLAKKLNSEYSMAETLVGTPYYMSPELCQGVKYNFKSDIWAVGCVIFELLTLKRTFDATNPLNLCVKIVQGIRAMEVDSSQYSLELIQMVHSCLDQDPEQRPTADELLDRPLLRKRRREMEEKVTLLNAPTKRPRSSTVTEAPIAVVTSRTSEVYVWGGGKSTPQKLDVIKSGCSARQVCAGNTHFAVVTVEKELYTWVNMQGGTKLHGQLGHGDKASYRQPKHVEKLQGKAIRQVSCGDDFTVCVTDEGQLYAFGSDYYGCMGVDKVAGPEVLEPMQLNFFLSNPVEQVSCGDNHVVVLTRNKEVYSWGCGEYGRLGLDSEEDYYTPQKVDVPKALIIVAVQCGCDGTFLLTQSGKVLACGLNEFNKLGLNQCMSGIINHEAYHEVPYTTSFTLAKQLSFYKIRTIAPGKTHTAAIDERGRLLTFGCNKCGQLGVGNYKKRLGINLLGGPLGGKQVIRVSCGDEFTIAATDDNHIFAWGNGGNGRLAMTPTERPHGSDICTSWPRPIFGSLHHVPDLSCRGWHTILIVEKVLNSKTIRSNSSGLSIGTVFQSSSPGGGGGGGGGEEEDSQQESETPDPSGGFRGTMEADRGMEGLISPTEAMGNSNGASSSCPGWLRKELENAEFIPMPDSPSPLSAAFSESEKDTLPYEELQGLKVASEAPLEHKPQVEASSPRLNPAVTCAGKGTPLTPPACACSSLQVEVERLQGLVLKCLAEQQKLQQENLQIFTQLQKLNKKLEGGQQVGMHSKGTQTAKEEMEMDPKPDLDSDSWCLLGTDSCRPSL

[7] = target: Serine/threonine-protein kinase 16 (Homo sapiens, UniProt O75716)
Serine/threonine-protein kinase 16, sequence (O75716 whole entry): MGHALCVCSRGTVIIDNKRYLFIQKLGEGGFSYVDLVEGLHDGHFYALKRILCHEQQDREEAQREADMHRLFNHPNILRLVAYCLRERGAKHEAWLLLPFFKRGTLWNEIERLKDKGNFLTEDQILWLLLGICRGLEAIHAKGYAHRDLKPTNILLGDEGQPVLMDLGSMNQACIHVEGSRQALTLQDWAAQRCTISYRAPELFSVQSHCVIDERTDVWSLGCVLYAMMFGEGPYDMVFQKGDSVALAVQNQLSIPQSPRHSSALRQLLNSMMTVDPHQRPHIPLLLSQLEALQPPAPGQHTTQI

[8] = target: T4, Signal recognition particle receptor subunit alpha (Homo sapiens, UniProt P08240)
T4 sequence (P08240 whole entry): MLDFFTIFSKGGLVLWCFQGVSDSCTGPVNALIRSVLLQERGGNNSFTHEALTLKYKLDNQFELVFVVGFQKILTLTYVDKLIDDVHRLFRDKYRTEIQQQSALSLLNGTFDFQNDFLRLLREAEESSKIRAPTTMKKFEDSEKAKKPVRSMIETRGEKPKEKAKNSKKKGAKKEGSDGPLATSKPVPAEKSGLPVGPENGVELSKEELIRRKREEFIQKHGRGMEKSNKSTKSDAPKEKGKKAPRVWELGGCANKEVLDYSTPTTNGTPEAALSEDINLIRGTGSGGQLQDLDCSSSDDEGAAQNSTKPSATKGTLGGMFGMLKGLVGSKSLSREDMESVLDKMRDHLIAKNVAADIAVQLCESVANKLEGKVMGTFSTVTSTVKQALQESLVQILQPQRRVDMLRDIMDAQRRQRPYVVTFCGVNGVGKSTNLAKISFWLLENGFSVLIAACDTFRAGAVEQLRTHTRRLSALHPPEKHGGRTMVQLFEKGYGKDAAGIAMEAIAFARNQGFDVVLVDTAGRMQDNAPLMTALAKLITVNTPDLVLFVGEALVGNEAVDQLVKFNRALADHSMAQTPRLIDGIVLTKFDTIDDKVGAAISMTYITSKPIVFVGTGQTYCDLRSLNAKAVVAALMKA

Obg-like ATPase 1 = Obg-like ATPase 1 (Homo sapiens, UniProt Q9NTK5)
Obg-like ATPase 1, sequence (Q9NTK5 whole entry, looked up): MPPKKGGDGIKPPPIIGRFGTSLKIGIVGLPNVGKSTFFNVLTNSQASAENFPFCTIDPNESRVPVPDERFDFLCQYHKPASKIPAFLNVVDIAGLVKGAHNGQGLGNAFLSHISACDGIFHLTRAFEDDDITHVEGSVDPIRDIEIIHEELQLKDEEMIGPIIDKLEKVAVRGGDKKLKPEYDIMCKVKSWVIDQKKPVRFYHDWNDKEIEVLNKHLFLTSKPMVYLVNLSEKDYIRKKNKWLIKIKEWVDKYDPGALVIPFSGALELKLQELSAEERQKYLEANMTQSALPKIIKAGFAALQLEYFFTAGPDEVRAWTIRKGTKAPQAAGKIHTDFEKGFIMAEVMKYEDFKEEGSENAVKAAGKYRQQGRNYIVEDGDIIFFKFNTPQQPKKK
Also: in the data inactive means no Kd found up to 30 µM.

Serine/threonine-protein kinase pim-1, sequence (P11309 whole entry): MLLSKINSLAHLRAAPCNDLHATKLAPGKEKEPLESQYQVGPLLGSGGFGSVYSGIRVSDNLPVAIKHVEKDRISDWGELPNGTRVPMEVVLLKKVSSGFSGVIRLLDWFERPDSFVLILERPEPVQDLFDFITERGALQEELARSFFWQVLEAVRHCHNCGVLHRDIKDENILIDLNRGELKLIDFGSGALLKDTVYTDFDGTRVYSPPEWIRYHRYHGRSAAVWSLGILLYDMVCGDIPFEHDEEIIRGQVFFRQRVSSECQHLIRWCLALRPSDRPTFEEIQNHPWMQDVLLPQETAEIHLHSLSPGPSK
Serine/threonine-protein kinase N2, sequence (Q16513 whole entry, canonical isoform): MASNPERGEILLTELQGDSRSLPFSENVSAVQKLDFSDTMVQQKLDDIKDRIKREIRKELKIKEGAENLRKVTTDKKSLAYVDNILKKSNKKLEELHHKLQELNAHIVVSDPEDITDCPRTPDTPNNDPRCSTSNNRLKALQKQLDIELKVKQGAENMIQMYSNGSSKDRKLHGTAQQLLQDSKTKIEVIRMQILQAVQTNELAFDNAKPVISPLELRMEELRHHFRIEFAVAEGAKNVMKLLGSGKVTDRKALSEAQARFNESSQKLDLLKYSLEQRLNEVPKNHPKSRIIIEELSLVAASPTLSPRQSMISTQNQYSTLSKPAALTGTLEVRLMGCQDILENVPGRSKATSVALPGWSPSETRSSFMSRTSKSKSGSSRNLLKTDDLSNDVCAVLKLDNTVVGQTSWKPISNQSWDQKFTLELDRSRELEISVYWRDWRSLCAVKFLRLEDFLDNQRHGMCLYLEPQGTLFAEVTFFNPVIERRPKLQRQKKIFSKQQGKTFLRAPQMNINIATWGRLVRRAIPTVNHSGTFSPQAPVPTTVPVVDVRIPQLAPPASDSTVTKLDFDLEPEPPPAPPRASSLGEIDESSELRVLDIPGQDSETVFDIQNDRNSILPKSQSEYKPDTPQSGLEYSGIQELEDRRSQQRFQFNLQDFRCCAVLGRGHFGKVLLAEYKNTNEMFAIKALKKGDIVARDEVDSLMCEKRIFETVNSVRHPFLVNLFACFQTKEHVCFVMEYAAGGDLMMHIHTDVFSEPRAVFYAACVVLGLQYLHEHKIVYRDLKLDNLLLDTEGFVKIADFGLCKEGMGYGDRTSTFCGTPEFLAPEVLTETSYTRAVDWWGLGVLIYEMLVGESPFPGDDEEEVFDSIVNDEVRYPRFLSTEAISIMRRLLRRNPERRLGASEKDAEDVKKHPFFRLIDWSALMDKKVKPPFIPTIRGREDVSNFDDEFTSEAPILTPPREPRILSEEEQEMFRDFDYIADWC
Casein kinase I isoform epsilon, sequence (P49674 whole entry, canonical isoform): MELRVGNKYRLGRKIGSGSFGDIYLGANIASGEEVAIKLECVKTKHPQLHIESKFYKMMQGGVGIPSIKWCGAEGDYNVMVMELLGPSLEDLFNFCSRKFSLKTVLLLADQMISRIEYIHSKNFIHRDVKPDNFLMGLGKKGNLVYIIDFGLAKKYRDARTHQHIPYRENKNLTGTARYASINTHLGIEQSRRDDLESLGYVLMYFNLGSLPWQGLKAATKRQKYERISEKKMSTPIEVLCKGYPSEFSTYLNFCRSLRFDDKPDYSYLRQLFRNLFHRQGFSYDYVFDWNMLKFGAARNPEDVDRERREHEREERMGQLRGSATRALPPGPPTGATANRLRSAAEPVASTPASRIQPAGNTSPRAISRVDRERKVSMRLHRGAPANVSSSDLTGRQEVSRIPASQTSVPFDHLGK

Row | Kd [1] | Kd [2] | Kd [3] | Kd (Scaffold protein ILK) | Kd [4] | Kd [5] | Kd (TGF-beta receptor type-2) | Kd (Activin receptor type-2B) | Kd [7] | Kd [8] | Kd (Obg-like ATPase 1) | Structure (SMILES) | Kd [6]
1 | > 30 µM (inactive) | > 30 µM (inactive) | > 30 µM (inactive) | > 30 µM (inactive) | > 30 µM (inactive) | 28.9 µM (active) | > 30 µM (inactive) | > 30 µM (inactive) | 0.849 µM (active) | > 30 µM (inactive) | > 30 µM (inactive) | CCS(=O)(=O)c1cccc(-c2cc(C(=O)NC3CCN(C)CC3)c(C)c3[nH]c4ncc(C)cc4c23)c1 [TAK-901] | > 30 µM (inactive)
2 | > 30 µM (inactive) | > 30 µM (inactive) | > 30 µM (inactive) | > 30 µM (inactive) | > 30 µM (inactive) | > 30 µM (inactive) | > 30 µM (inactive) | > 30 µM (inactive) | > 30 µM (inactive) | > 30 µM (inactive) | > 30 µM (inactive) | CO[C@H]1C[C@@H]2CC[C@@H](C)[C@@](O)(O2)C(=O)C(=O)N2CCCC[C@H]2C(=O)O[C@H]([C@H](C)C[C@@H]2CC[C@@H](OC(=O)C(C)(CO)CO)[C@H](OC)C2)CC(=O)[C@H](C)/C=C(\C)[C@@H](O)[C@@H](OC)C(=O)[C@H](C)C[C@H](C)/C=C/C=C/C=C/1C [TEMSIROLIMUS] | > 30 µM (inactive)
3 | > 30 µM (inactive) | 1.02 µM | > 30 µM (inactive) | > 30 µM (inactive) | > 30 µM (inactive) | > 30 µM (inactive) | > 30 µM (inactive) | > 30 µM (inactive) | > 30 µM (inactive) | > 30 µM (inactive) | > 30 µM (inactive) | COc1cc2c(Nc3ccc(Cl)c(Cl)c3F)ncnc2cc1OC[C@@H]1C[C@@H]2CN(C)C[C@@H]2C1 [TESEVATINIB] | > 30 µM (inactive)
4 | > 30 µM (inactive) | > 30 µM (inactive) | > 30 µM (inactive) | > 30 µM (inactive) | > 30 µM (inactive) | > 30 µM (inactive) | > 30 µM (inactive) | > 30 µM (inactive) | > 30 µM (inactive) | > 30 µM (inactive) | > 30 µM (inactive) | O=C(Cc1ccc(-c2ccc(OCCN3CCOCC3)cc2)cn1)NCc1ccccc1 [TIRBANIBULIN] | > 30 µM (inactive)
5 | 0.028 µM (active) | > 30 µM (inactive) | > 30 µM (inactive) | > 30 µM (inactive) | > 30 µM (inactive) | 2.74 µM (active) | > 30 µM (inactive) | > 30 µM (inactive) | > 30 µM (inactive) | > 30 µM (inactive) | > 30 µM (inactive) | C[C@@H](N)c1ccc(C(=O)Nc2ccnc3[nH]ccc23)cc1 [Y-39983] | > 30 µM (inactive)

Row | Structure (SMILES) | Kd [1] | Kd [2] | Kd [3] | Kd (Scaffold protein ILK) | Kd [4] | Kd [5] | Kd (TGF-beta receptor type-2) | Kd (Activin receptor type-2B) | Kd [7] | Kd [8] | Kd (Obg-like ATPase 1) | Kd [6]
6 | Cc1cc(Nc2ncnc3ccc(NC4=NC(C)(C)CO4)cc23)ccc1Oc1ccn2ncnc2c1 [TUCATINIB] | > 30 µM (inactive) | > 30 µM (inactive) | > 30 µM (inactive) | > 30 µM (inactive) | > 30 µM (inactive) | > 30 µM (inactive) | > 30 µM (inactive) | > 30 µM (inactive) | > 30 µM (inactive) | > 30 µM (inactive) | > 30 µM (inactive) | > 30 µM (inactive)
